Assays:
CD38 cyclase = target: T1, CD38 cyclase (Homo sapiens, UniProt P28907); test: CD38 cyclase activity, fluorometric assay with NGD+ as substrate; format: biochemical; conditions: for remaining activity at 50 µM: read-out: % cyclase activity remaining (50 μM)
T1 sequence (P28907 1-300): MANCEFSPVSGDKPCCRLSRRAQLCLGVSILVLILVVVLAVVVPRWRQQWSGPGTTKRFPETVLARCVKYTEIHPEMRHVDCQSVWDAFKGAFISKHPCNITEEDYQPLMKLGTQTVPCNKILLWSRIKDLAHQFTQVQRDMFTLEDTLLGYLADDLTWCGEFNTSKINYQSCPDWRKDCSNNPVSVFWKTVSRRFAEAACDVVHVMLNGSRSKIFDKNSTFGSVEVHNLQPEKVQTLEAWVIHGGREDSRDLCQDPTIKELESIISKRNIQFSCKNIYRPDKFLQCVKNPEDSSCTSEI

PBMCs = test: Cytokine analysis; format: cell-based; conditions: 1.0 μM, 48 hours, activated PBMCs from 3 donors
CD38 hydrolase = target: T2, CD38 hydrolase (Homo sapiens, UniProt P28907); test: CD38 hydrolase activity, fluorometric assay with ε-NAD+ as substrate; format: biochemical; conditions: hydrolase versus cyclase screen
T2 sequence (P28907 1-300): T1 sequence (P28907 1-300)

IC50 (CD38 cyclase) [µM] | remaining activity at 50 µM (CD38 cyclase) [%] | Compound | increase in IFNγ (in words) (PBMCs) | selectivity between hydrolase and cyclase activity (in words) (CD38 hydrolase)
11.5 | 22.1 ± 4 | CS(=O)(=O)c1ccc(/C=C2\SC(=S)NC2=O)cc1 [Compound 21] | – | –
4.81 | 21.7 ± 8.1 | O=C1NC(=S)S/C1=C\c1ccc(OC(F)(F)F)cc1 [Compound 22] | – | –
4.65 | 9.3 ± 0.8 | O=C1NC(=S)S/C1=C\c1ccc(C(F)(F)F)cc1 [Compound 23] | more effective than 78c | –
> 100 | 90.1 ± 3.9 | COc1ccc(-c2ccc(/C=C3\SC(=S)N(C)C3=O)cc2)cc1 [Compound 24] | – | –
56 | 68.3 ± 18.2 | O=C1NC(=S)S/C1=C\c1ccc2ncccc2c1 [Compound 25] | – | –
> 100 | 77.3 ± 22.4 | O=C1NC(=S)S/C1=C\c1ccc2oc3ccccc3c2c1 [Compound 26] | – | –
> 100 | 88.2 ± 0.6 | O=C1NC(=S)S/C1=C\c1ccc(Oc2ccccc2)cc1 [Compound 27] | – | –
> 100 | 93.9 ± 6.9 | O=C1NC(=S)S/C1=C\c1ccc2c(c1)OCCO2 [Compound 28] | – | –
> 100 | 98.6 ± 4.7 | Cc1ccc(-c2cccc(/C=C3\SC(=S)NC3=O)c2)cc1 [Compound 29] | – | –
20.9 | 70.3 ± 40.7 | O=C1NC(=S)S/C1=C\c1cc2cc3c(cc2nc1Cl)OCO3 [Compound 30] | – | –
> 100 | 96.3 ± 6.8 | O=C1NC(=S)S/C1=C\c1ccc2c(c1)-c1ccccc1C2 [Compound 31] | – | –
3.15 | 64.5 ± 4.2 | O=C1NC(=S)S/C1=C\c1ccc(-c2ccc(C(F)(F)F)cc2)cc1 [Compound 32] | more effective than 78c | –
10 | 39.4 ± 4.9 | Cc1ccc(-c2ccc(/C=C3\SC(=S)NC3=O)cc2)cc1 [Compound 33] | – | –
56 | 66.3 ± 23.4 | O=C1NC(=S)S/C1=C\c1ccc(-c2ccccn2)cc1 [Compound 34] | – | –
> 100 | 81.7 ± 9 | O=C1NC(=S)S/C1=C\c1ccc(-c2cccc(C(F)(F)F)c2)o1 [Compound 35] | – | –
> 100 | 90 ± 5.4 | COc1ccc2cc(/C=C3\SC(=S)NC3=O)ccc2c1 [Compound 36] | – | –
> 100 | 84.5 ± 2.2 | Cc1ccc(-c2ccc(/C=C3\SC(=O)NC3=O)cc2)cc1 [Compound 37] | – | –
> 100 | 84.5 ± 8.5 | O=C1NC(=S)S/C1=C\c1ccc(OCc2ccccc2)cc1 [Compound 38] | – | –
68.6 | 64.1 ± 7.2 | COc1cc(/C=C2\SC(=S)NC2=O)cc(OC)c1OC [Compound 39] | – | –
– | 22.1 ± 14.3 | O=C1NC(=S)S/C1=C\c1ccc(-c2ccccc2)cc1 [Compound 40] | – | –
> 100 | 81.6 ± 2.4 | O=C1NC(=S)S/C1=C\c1ccccc1C(F)(F)F [Compound 41] | – | –
> 100 | 87.1 ± 3.4 | O=C1NC(=S)S/C1=C\c1ccccc1OC(F)(F)F [Compound 42] | – | –
48.2 | 29 ± 18.8 | Cc1ccc(-c2ccc(/C=C3\SC(=S)N(C)C3=O)cc2)cc1 [Compound 43] | – | –
53.8 | 55.7 ± 2.3 | COc1ccc(-c2ccc(/C=C3\SC(=S)NC3=O)cc2)cc1 [Compound 45] | – | –
– | – | O=c1cc(-c2ccc(O)cc2)oc2cc(O)cc(O)c12 [apigenin] | – | neither compound showed significant selectivity

— PMC9042253 (RSC Advances, 2021)
